Legend:
COX-1 = target: T1, COX-1 (Rattus norvegicus, UniProt Q63921); assay: Anti-inflammatory assay, LPS-activated rat blood neutrophils, TXB2 ELISA (COX-1 marker); format: cell-based; conditions: 3 hours
T1 construct: endogenous in cells
T1 sequence (Q63921 27-602): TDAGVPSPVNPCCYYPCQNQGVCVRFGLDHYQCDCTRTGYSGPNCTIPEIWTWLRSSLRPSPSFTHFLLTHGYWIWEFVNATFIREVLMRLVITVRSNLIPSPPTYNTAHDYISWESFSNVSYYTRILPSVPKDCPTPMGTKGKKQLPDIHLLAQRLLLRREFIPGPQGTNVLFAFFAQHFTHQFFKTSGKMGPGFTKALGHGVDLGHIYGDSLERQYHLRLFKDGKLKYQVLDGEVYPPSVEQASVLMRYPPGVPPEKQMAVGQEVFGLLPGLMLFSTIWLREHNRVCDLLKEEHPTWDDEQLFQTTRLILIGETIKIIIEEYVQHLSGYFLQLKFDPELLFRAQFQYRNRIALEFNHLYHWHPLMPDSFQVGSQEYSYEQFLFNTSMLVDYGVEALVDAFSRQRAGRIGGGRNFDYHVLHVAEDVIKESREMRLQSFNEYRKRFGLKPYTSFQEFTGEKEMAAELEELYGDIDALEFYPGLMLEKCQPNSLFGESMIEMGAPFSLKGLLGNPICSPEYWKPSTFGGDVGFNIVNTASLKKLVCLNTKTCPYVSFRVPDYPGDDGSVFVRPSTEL
Experimental: (§1) The proliferation of cancers can follow an inflammatory pathway. […] This study was performed using LPS-activated neutrophils from rat blood to determine the inhibition of the inflammatory mediators cyclooxygenase enzymes COX I and COX II.
(§2) Anti-inflammatory assays were carried out as follows. Neutrophils from rat blood were cultured in the presence of the test sample or positive control before being activated into an inflammatory response through the use of lipopolysaccharide (LPS). The incubation period before addition of LPS was 20 minutes. The cell culture supernatants were then tested by ELISA for the presence of the cyclooxygenase COX-1 and COX-2 marker compounds thromboxane TXB2 and prostaglandin PGE2, respectively. […] The test samples were used at 50 μg and 200 μg of solids/ml, and were tested in triplicate. The incubation period for TXB2 and PGE2 was 3 hours.

COX-2 = target: T2, COX-2 (Rattus norvegicus, UniProt P35355); assay: Anti-inflammatory assay, LPS-activated rat blood neutrophils, PGE2 ELISA (COX-2 marker); format: cell-based; conditions: 3 hours
T2 construct: endogenous in cells
T2 sequence (P35355 18-604): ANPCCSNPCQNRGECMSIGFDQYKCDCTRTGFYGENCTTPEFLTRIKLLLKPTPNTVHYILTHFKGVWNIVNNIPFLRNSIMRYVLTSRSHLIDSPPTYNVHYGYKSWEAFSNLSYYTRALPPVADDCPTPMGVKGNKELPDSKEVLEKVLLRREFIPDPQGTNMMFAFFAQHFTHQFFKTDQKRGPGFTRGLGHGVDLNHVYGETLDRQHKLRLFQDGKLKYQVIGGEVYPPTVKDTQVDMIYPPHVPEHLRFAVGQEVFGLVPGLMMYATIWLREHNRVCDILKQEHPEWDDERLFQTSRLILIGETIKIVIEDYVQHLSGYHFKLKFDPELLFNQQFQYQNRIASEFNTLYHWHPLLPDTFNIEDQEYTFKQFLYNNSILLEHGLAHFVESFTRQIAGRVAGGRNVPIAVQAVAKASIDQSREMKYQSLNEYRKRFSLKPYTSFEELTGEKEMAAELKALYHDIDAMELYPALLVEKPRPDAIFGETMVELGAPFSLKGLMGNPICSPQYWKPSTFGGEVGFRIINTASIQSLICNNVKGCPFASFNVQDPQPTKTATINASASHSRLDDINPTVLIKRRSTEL
Experimental: as §1, §2

OC[C@H]1O[C@@H]2O[C@H]3[C@H](O)[C@@H](O)[C@@H](O[C@H]4[C@H](O)[C@@H](O)[C@@H](O[C@H]5[C@H](O)[C@@H](O)[C@@H](O[C@H]6[C@H](O)[C@@H](O)[C@@H](O[C@H]7[C@H](O)[C@@H](O)[C@@H](O[C@H]8[C@H](O)[C@@H](O)[C@@H](O[C@H]9[C@H](O)[C@@H](O)[C@@H](O[C@H]1[C@H](O)[C@H]2O)O[C@@H]9CO)O[C@@H]8CO)O[C@@H]7CO)O[C@@H]6CO)O[C@@H]5CO)O[C@@H]4CO)O[C@@H]3CO [IFS#11, Gamma cyclodextrin]
COX (I), 50 μg/ml (COX-1; 50 μg of solids/ml): S, NS | COX (I), 200 μg/ml (COX-1; 200 μg of solids/ml): 2.3, NS | COX (II), 50 μg/ml (COX-2; 50 μg of solids/ml): 10.1, NS | COX (II), 200 μg/ml (COX-2; 200 μg of solids/ml): S, NS
